Laboratory results as given in ChEMBL document CHEMBL1201862, “PubChem BioAssay data set” (2004).
Active and inactive are the calls of the source.

Tests used:
Assay type in all cases: functional
[1] = target: T1, Sentrin-specific protease 8 (Homo sapiens, UniProt Q96LD8); test: SENP8 protease inhibitors, SAR follow-up, biochemical, luminescence (AID 504501)
T1 sequence (Q96LD8 whole entry): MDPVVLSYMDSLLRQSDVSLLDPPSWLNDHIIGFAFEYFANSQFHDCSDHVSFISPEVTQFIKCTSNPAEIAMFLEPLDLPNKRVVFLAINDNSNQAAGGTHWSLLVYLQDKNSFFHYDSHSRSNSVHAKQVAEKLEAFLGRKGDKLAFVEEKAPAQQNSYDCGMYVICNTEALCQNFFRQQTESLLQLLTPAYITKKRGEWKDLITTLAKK

[2] = target: T2, Caspase-3 (Homo sapiens, UniProt P42574); test: SAR Analysis of small molecule inhibitors of Sentrin-specific proteases (SENPs) using a Caspase-3 Selectivity assay. [Related pubchem assays (depositor defined):AID2540, AID2599, AID434973, AID489001]
T2 sequence (P42574 whole entry): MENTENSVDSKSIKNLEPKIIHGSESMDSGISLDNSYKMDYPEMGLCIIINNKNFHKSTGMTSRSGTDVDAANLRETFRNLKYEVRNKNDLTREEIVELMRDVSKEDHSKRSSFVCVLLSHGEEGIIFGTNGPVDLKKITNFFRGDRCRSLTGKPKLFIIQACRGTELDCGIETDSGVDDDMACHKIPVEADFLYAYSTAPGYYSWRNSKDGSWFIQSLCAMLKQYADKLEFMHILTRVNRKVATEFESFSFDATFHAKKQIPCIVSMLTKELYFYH

[3] = target: T3, Sentrin-specific protease 6 (Homo sapiens, UniProt Q9GZR1); test: SAR Analysis of small molecule inhibitors of Sentrin-specific protease 6 (SENP6) using a Luminescent assay. [Related pubchem assays (depositor defined):AID2582, AID2599]
T3 sequence (Q9GZR1 whole entry): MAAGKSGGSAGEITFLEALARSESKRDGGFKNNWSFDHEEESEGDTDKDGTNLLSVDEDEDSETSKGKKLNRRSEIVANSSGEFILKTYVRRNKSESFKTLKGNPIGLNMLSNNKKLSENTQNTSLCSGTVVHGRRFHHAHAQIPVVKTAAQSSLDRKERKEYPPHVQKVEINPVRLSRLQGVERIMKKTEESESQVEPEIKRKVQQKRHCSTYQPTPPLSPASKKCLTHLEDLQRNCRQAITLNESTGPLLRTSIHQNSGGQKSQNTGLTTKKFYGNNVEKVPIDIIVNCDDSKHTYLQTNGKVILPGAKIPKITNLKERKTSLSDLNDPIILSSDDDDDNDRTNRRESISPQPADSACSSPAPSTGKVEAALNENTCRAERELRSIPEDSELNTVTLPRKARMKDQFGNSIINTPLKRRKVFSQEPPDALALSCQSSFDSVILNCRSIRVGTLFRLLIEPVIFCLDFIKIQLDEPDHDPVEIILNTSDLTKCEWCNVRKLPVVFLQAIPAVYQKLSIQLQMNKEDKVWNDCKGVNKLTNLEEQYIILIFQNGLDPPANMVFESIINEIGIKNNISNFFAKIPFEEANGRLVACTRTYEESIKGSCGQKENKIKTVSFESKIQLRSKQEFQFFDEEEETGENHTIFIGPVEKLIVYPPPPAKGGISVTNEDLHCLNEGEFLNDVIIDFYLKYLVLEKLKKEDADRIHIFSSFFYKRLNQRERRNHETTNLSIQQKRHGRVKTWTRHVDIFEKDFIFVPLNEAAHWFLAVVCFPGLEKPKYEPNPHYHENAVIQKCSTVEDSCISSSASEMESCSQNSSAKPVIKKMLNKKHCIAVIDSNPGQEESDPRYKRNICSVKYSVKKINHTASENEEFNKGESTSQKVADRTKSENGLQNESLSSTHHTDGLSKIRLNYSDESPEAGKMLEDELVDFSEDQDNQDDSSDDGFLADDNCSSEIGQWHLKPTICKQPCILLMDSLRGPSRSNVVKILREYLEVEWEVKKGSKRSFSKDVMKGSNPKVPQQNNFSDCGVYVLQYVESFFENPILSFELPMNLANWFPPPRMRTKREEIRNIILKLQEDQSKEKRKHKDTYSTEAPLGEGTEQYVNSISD

[4] = target: T4, Sentrin-specific protease 7 (Homo sapiens, UniProt Q9BQF6); test: SENP7 protease inhibitors, SAR follow-up, biochemical, luminescence (AID 504497)
T4 sequence (Q9BQF6 whole entry): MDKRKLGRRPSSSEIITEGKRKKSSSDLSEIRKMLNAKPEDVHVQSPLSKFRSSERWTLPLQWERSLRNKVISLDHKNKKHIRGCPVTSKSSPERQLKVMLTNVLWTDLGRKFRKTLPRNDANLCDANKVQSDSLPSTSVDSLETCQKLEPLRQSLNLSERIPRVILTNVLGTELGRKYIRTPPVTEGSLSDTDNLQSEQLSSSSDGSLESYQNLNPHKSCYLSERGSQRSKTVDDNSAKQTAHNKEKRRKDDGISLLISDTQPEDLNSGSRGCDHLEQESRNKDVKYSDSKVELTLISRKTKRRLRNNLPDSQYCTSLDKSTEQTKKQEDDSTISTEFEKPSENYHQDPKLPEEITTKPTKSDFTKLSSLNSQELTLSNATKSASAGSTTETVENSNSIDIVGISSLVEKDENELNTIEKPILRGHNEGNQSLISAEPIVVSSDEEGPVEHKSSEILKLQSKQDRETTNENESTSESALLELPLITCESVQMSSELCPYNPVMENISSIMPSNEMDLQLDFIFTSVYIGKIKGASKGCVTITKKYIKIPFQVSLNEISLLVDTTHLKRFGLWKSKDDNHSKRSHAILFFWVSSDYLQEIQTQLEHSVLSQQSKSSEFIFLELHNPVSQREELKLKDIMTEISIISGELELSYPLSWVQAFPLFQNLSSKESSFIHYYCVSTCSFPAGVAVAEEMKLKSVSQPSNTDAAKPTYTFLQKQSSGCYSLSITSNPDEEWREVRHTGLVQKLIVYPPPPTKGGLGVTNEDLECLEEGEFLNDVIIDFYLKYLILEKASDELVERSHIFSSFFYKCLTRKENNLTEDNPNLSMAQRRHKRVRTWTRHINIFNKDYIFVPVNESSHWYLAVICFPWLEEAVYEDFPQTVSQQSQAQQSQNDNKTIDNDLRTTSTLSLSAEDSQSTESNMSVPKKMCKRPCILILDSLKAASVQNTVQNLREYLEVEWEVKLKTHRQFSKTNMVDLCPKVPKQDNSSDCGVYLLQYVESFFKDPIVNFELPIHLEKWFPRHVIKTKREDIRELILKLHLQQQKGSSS

[5] = target: Serine/threonine-protein kinase TAO1 (Homo sapiens, UniProt Q7L7X3)
[6] = target: Leukocyte tyrosine kinase receptor (Homo sapiens, UniProt P29376); test: Navigating the Kinome. Panel member name: LTK
[7] = target: T5, Neuropeptides B/W receptor type 1 (Homo sapiens, UniProt P48145); test: GPR7 antagonist potency, late-stage follow-up, cell-based, fluorescence, dose response, set 5 (AID 588566)
T5 sequence (P48145 whole entry): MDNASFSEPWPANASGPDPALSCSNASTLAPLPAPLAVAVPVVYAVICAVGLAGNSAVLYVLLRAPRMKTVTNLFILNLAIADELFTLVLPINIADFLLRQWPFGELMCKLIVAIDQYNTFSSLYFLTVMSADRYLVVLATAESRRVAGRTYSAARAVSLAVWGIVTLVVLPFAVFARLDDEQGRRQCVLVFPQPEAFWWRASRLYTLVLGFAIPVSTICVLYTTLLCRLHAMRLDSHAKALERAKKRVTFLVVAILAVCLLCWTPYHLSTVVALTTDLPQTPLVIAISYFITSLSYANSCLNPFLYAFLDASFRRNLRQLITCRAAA

[8] = target: Melanin-concentrating hormone receptor 1 (Homo sapiens, UniProt Q99705); test: Late-stage fluorescence-based counterscreen for antagonists of the G-protein coupled receptor 7 (GPR7): cell-based dose response assay to identify antagonists of the melanin-concentrating hormone receptor 1 (MCHR1) Set 5.
Sequence of Melanin-concentrating hormone receptor 1 (Q99705 whole entry): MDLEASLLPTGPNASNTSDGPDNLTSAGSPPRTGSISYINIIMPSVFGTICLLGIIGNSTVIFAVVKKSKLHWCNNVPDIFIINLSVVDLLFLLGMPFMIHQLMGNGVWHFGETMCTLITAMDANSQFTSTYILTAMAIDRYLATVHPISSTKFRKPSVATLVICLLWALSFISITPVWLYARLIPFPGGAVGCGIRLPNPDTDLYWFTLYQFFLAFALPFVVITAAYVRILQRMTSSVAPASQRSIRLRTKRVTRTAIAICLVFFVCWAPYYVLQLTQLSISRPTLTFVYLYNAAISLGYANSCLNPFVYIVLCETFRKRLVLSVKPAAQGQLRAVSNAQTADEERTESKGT

Sequence of Leukocyte tyrosine kinase receptor (P29376 whole entry): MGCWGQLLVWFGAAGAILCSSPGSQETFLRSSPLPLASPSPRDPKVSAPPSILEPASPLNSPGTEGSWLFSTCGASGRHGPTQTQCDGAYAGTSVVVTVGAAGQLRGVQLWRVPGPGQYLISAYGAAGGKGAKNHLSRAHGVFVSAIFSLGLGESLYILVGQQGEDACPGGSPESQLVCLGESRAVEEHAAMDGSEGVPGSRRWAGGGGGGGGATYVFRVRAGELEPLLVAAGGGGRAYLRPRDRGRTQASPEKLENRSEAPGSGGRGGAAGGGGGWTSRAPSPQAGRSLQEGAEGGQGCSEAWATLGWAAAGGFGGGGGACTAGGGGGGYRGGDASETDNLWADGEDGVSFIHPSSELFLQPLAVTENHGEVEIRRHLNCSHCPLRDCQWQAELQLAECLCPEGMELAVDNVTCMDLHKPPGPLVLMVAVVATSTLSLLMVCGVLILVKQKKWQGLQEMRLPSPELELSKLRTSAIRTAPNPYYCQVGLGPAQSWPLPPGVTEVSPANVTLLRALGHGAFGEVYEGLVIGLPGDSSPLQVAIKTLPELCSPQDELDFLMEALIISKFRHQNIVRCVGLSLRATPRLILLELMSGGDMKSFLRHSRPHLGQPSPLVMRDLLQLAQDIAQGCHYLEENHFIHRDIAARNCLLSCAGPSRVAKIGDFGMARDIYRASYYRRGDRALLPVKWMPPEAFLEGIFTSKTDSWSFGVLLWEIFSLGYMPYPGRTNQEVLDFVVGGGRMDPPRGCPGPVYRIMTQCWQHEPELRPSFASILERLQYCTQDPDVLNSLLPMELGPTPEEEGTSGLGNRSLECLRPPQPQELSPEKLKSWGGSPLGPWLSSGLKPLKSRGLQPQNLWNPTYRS
Sequence of Serine/threonine-protein kinase TAO1 (Q7L7X3 whole entry): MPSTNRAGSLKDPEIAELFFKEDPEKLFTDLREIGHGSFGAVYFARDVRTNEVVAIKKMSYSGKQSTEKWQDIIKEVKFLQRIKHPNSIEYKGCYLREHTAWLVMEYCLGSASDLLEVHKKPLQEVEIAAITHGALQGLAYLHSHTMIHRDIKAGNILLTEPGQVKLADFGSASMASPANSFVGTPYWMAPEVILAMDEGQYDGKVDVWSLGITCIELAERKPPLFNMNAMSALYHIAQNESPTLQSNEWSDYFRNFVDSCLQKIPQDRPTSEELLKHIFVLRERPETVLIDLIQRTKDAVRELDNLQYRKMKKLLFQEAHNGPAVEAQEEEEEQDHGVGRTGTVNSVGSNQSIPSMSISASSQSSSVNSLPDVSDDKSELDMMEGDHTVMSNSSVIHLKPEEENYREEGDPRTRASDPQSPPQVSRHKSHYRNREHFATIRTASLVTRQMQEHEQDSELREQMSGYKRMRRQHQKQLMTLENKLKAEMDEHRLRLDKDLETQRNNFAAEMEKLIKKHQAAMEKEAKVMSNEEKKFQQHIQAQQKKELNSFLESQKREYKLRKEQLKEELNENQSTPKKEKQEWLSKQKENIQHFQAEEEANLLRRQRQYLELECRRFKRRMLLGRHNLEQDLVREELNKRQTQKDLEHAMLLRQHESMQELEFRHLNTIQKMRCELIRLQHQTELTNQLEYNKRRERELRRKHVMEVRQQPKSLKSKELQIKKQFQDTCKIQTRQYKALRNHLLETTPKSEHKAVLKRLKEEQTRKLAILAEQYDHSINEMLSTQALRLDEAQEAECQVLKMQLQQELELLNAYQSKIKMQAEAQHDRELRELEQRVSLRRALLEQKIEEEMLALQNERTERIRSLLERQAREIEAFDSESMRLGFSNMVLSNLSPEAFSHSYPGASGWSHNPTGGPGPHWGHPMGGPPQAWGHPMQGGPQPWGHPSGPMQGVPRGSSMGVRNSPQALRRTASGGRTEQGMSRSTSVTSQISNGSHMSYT

IC50 [2] | IC50 [3] | IC50 [4] | Ki [5] | Ki [6] | IC50 [7] | IC50 [8] | Structure (SMILES) | IC50 [1]
> 99 µM (inactive) | > 99 µM (inactive) | > 99 µM (inactive) | – | – | – | – | CCCCc1ccc2nc(NC(=O)c3cc(Br)cs3)sc2c1 | > 99 µM (inactive)
> 99 µM (inactive) | > 99 µM (inactive) | > 99 µM (inactive) | – | – | – | – | COc1cc(OC)cc(-c2nc(/C=C/c3ccccc3)no2)c1 | > 99 µM (inactive)
– | – | – | 1 µM (active) | 2.51 µM (active) | – | – | O=C(O)C1CN(Cc2ccc(OCc3ccc(Cl)cc3Cl)cc2)C1 | –
– | – | – | – | – | > 20 µM (inactive) | > 20 µM (inactive) | CCOc1ccc(Oc2c(N3CCCCC3)c(Br)nn(Cc3cccc4ccccc34)c2=O)cc1 | –
– | – | – | – | – | 10.1 µM (inactive) | > 20 µM (inactive) | COc1cc(OC)cc(Oc2c(Cl)cnn(Cc3cccc4ccccc34)c2=O)c1 | –
